Among the data in ChEMBL document CHEMBL3243968, “Effects of molecular modification on hypocholesteremic activity of 1,3-bis(substituted phenoxy)-2-propanones and related derivatives” (J Med Chem, 1978) are Activity and logP values, retold here.

SMILES strings stand for the structures.

The test system of data set [1] is Rattus norvegicus. Put plainly: Toxicity in Sprague-Dawley rat at 10 mg/kg/day, po. The note with it: in vivo. Set-up: route oral. It is filed as organism-based.
Data set [2] has as its system Rattus norvegicus. The data set can be described thus: Estrogenic activity in Sprague-Dawley rat at 10 mg/kg/day, po. It is filed as ADME, organism-based. The note with it: in vivo. Details: route oral.
For data set [3], the system named is Rattus norvegicus. Put plainly: Toxicity in Sprague-Dawley rat at 10 mg/kg/day, po administered for 4 days. The format is organism-based. Details: route oral. The note with it: in vivo, 96 h.
Data set [4] deals with Rattus norvegicus. Put plainly: Toxicity in Sprague-Dawley rat at 10 mg/kg/day, po administered for 10 days. It is filed as organism-based. Set-up: route oral. The note with it: in vivo, 240 h.
The subject of data set [5] is Rattus norvegicus. The data set can be described thus: Toxicity in Sprague-Dawley rat at 10 mg/kg/day, po administered for 16 days. It is filed as organism-based. Details: route oral. As to conditions: in vivo, 384 h.
Data set [6] is described as follows: 1-Octanol-water partition coefficient, log P of the compound by UV spectrophotometer. It is filed as physicochemical.

For `CC(=O)COc1ccc(C)cc1`, the Activity result in data set [1] and in data set [2] was “Non-toxic” in each case.

In the case of `CC(=O)COc1ccc([N+](=O)[O-])cc1`, the Activity result in data set [1] and in data set [2] was “Non-toxic” each time.

In the case of `O=C(COc1ccc(Cl)c2ccccc12)COc1ccc(Cl)c2ccccc12`, the Activity entry in data set [1] and in data set [2] was “Non-toxic” throughout.

As for `O=C(COc1ccc(-c2ccccc2)cc1)COc1ccc(-c2ccccc2)cc1`, the Activity result in data set [1] and in data set [2] was “Non-toxic” throughout.

For the molecule `COc1cccc(OCC(=O)COc2cccc(OC)c2)c1`, the Activity result in data set [1] and in data set [2] was “Non-toxic” in each case.

With `O=C(COc1ccc2c(c1)CCC2)COc1ccc2c(c1)CCC2`, the Activity result in data set [1] and in data set [2] was “Non-toxic” throughout.

For `CCCCCCCCCCCCCCC(=O)COc1ccc(C)cc1`, the Activity entry in data set [1] and in data set [2] was “Non-toxic” each time.

Turning to `CCCCCCCCCCCCCCCCCCOCC(=O)COc1ccc(C)cc1`, the Activity entry in data set [1] and in data set [2] was “Non-toxic” in each case.

For `Cc1ccccc1OCC(=O)COC(=O)c1ccc(Cl)cc1`, the Activity result in data set [1] and in data set [2] was “Non-toxic” each time.

For the molecule `O=C(COc1ccc([N+](=O)[O-])cc1)COc1ccc([N+](=O)[O-])cc1`, the Activity result in data set [1] and in data set [2] was “Non-toxic” throughout.

For `O=C(CCl)COc1ccc([N+](=O)[O-])cc1`, the Activity result in data set [2] is recorded as “Non-toxic”; in data set [3] it was “Toxic”; in data set [4], “Toxic”; in data set [5], “Toxic”.

For the molecule `O=C(CCl)COc1cccc2ccccc12`, the Activity entry in data set [1] and in data set [2] was “Non-toxic” each time.

Regarding `CCCCCOCC(=O)COCCCCC`, the Activity result in data set [1] and in data set [2] was “Non-toxic” each time.

As to `CCOC(=O)CC(=O)COc1ccc(C)cc1`, the Activity result in data set [1] and in data set [2] was “Non-toxic” each time.

Turning to `Cc1ccc(OCC2CO2)cc1` (stereo unspecified), the Activity entry in data set [1] and in data set [2] was “Non-toxic” each time. Also, the logP in data set [6] is 2.69.

With `CCOC(COc1cc(C)c(C)cc1Cl)(COc1cc(C)c(C)cc1Cl)OCC`, the Activity result in data set [1] and in data set [2] was “Non-toxic” throughout. The molecule also displayed a logP in data set [6] of 2.69.

For `Cc1ccc(OC(C)C(=O)C(C)Oc2ccc(C)cc2)cc1` (stereo unspecified), the Activity entry in data set [1] and in data set [2] was “Non-toxic” throughout.

Take `Cc1ccc(OCC(=O)CO)cc1`: the Activity entry in data set [1] and in data set [2] was “Non-toxic” each time.

Turning to `CCCCCCCCCCCCC(OC(C)=O)S(C)(=O)=O` (stereo unspecified), the Activity result in data set [1] and in data set [2] was “Non-toxic” throughout.

As for `O=C(COc1ccccc1)COc1ccccc1`, the logP in data set [6] was under 2.69.

`COc1ccccc1OCC(=O)COc1ccccc1OC` showed a logP in data set [6] of under 2.69.

As for `CCOC(=O)C(C)(C)Oc1ccc(Cl)cc1` [CLOFIBRATE], the Activity entry in data set [1] and in data set [2] was “Non-toxic” each time.
